Experimental data as given in US12233089B2, “Foods to promote better health and/or to maintain homeostasis and method of production thereof” (Vector Vitale IP LLC, priority 2021, dated 2025).
Like-named read-outs stand apart in the source and are kept apart here. Marks after values point to notes of the source that are not given here.

Experiments:
[1] = tested on: pro-inflammatory (IL-1, IL-6, IL-12, IFN-γ) and anti-inflammatory (IL-4, IL-10, TGF) cytokines; assay: Cytokine profile in the serum of experimental animals; format: in vivo, rats; conditions: M ± m, n = 10
Excerpt: As mentioned above, the pathogenesis of obesity is accompanied by a systemic chronic inflammatory process, the intensity of which can be assessed by the serum levels of pro- and anti-inflammatory cytokines.

Epstein-Barr virus = assay: Cytotoxicity and antiviral activity against Epstein-Barr virus
MMP-9 = assay: Activities of latent and active forms of metalloproteinase 9 in MM-4 cells; conditions: 16.69 μg/ml
P. aeruginosa ATCC 27853 [2] = assay: Minimum bactericidal concentration (MBC), P. aeruginosa; format: cell-based; conditions: 37° C. 24 h, Table 4
Description: (§1) To evaluate the bactericidal action of the antibacterial composition based on light isotope ^64Zne the minimum bactericidal concentration (MBC) was determined by plating out 0.1 ml of the contents of each tube containing the antibacterial composition on Mueller-Hinton medium. The incubation was at 37° C. for 24 h.
(§2) The MBC of the test samples was determined as the lowest concentration at which there was no growth on Mueller-Hinton agar medium.
(§3) The conditions of the experiment were like those for Zn-64 compound.

[3] = tested on: rat models of Aβ1-40-induced AD; assay: Rat model of Alzheimer's disease induced by infusion of Aβ 1-40; format: in vivo, rats
Excerpt: The Effect of ^64Zn-Asp on Cognitive Symptomatology in Rats with Different Models of Alzheimer's Disease Induced by Infusion of a Mix of Beta-Amyloid Peptides

[4] = tested on: pro-inflammatory (IL-1, IL-6, IL-12, IFN-γ) and anti-inflammatory (IL-4, IL-10, TGF) cytokines; conditions: adipose tissue, M ± m, n = 10
Description: Given the above, the next phase was to find out whether the administration of Zn-64 stable isotope in aspartate form influences the cytokine profile in obese animals.

[5] = Glucose and pancreatic islets in vivo, model not given (section on obesity and type 1 & 2 diabetes)
MMP-2 = assay: Activities of latent and active forms of metalloproteinase 2 in MM-4 cells
type 1 diabetes = assay: Development of type 1 diabetes in vivo
S. aureus ATCC 25923 = assay: Minimum bactericidal concentration (MBC), S. aureus; format: cell-based; conditions: 37° C. 24 h, Table 4
Description: as §1, §2, §3

[6] = tested on: rats with LPS-induced Parkinson's disease; assay: LPS-induced Parkinson's disease in rats; format: in vivo
Excerpt: Effects of ^64Zn-KLS-1 on Local and Systemic Immune Reactivity, Behavioural and Motor Functions in Rats with LPS-Induced Experimental Parkinsonism

P. aeruginosa ATCC 27853 [7] = assay: MIC (bacteriostatic activity), P. aeruginosa; format: cell-based
Excerpt: as §3

[8] = tested on: MM-4 mouse melanoma cells; assay: In vitro analysis of viability of MM-4 mouse melanoma cells; format: cell-based
Excerpt: A second study was done on mouse model of lymphocytic leukemia, strain of L1210 leukemia cells, mouse melanoma model (MM-4 cell line derived from mouse melanoma cells of strain B16). Typical results are below.

MM-4 cells = assay: Immunocytochemistry of Bcl-2, Bax and p53 expression in MM-4 cells; format: cell-based, mouse
E. coli ATCC 25922 = assay: Minimum bactericidal concentration (MBC), E. coli; format: cell-based; conditions: 37° C. 24 h, Table 4
Description: as §1, §2, §3

[9] = tested on: animals on a high-fat diet (DIO); assay: Diet induced obesity model (animals on a high-fat diet); format: in vivo, rats
Excerpt: The preclinical study of the effects of Zn-64 Asp on key pathogenetic links in the development and progression of obesity in diet-induced obesity models provides strong ground for efficient use of Zn-64 Asp as therapeutic agent in the treatment of overweight and obese patients.

[10] = animals with AD, therapeutic administration
[11] = LPS-induced Parkinson's disease

Work on `NC(CC(=O)[O-])C(=O)[O-].[64Zn+2]` (stereo not drawn) [Zn64 Aspartate, ^64Zne aspartate] yielded an IFN-γ level ([1]; control animals (C)) of 4.6 ± 0.6 RU/mg protein, an IL-1 level ([1]; control animals (C)) of 3.5 ± 0.7 RU/mg protein and an IL-4 level ([1]; control animals (C)) of 4.6 ± 0.8 RU/mg protein. For the same molecule, the IL-6 level ([1]; control animals (C)) was 4.3 ± 0.2^ RU/mg protein, the IL-10 level ([1]; control animals (C)) was 4.1 ± 0.5 RU/mg protein and the IL-12 level ([1]; control animals (C)) was 0.3 ± 0.04 RU/mg protein. It also gave a TGF level ([1]; control animals (C)) of 4.1 ± 0.4 RU/mg protein, an IFN-γ level ([1]; diet induced obesity (DIO)) of 4.1 ± 1.2 RU/mg protein and an IL-1 level ([1]; diet induced obesity (DIO)) of 4.2 ± 0.4 RU/mg protein. The IL-4 level ([1]; diet induced obesity (DIO)) was 5.6 ± 1.6 RU/mg protein, the IL-6 level ([1]; diet induced obesity (DIO)) was 5.1 ± 0.4 RU/mg protein and the IL-10 level ([1]; diet induced obesity (DIO)) was 6.8 ± 1.1 # RU/mg protein. The IL-12 level ([1]; diet induced obesity (DIO)) was 2.4 ± 0.06 # RU/mg protein, the TGF level ([1]; diet induced obesity (DIO)) was 5.7 ± 0.3 # RU/mg protein and the “assessment of cytotoxicity and antiviral activity for anti-EBV infection” value (Epstein-Barr virus) was “most promising”. The “decrease in the activity of active MMP-9 compared with the control” value (MMP-9) was 23.8%, the “decrease in the activity of latent pro-MMP-9 compared with the control” value (MMP-9) was 61.2% and the MBC (P. aeruginosa ATCC 27853 [2]) was >750 mcg ^64Zne/ml. The cognitive function ([3]; AD models) was “significantly improved”, the “body weight, water and feed intake” value ([3]; AD rats treated for 10 days) was “restored” and the neuroinflammation ([3]; Aβ1-40-induced AD) was “almost complete resolution”. For the same molecule, the “staining intensity of TH-immuno-positive cells” value ([3]; Aβ1-40 AD rats, hippocampal dopaminergic neurons) was “increased”, the “absolute number of circulating leukocytes” value [3, 10] was “complete normalization” and the “neutrophilic lymphocytic coefficient (NLC)” value [3, 10] was “complete normalization”. For the same molecule, the IFN-γ level ([4]; control animals (C)) was 5.0 ± 0.8^ RU/mg protein, the IL-1 level ([4]; control animals (C)) was 4.9 ± 1.7^ RU/mg protein and the IL-4 level ([4]; control animals (C)) was 5.0 ± 0.4^ RU/mg protein. The IL-6 level ([4]; control animals (C)) was 5.4 ± 0.3^ RU/mg protein, the IL-10 level ([4]; control animals (C)) was 4.9 ± 0.2^ RU/mg protein and the IL-12 level ([4]; control animals (C)) was 1.0 ± 0.03 RU/mg protein. The TGF level ([4]; control animals (C)) was 5.1 ± 0.6^ RU/mg protein, the IFN-γ level ([4]; diet induced obesity (DIO)) was 4.9 ± 0.8 RU/mg protein and the IL-1 level ([4]; diet induced obesity (DIO)) was 5.8 ± 1.8 RU/mg protein. For the same molecule, the IL-4 level ([4]; diet induced obesity (DIO)) was 5.1 ± 1.2 RU/mg protein, the IL-6 level ([4]; diet induced obesity (DIO)) was 6.1 ± 0.7 RU/mg protein and the IL-10 level ([4]; diet induced obesity (DIO)) was 5.8 ± 0.8 RU/mg protein. For the same molecule, the IL-12 level ([4]; diet induced obesity (DIO)) was 1.99 ± 0.01 RU/mg protein, the TGF level ([4]; diet induced obesity (DIO)) was 5.2 ± 0.9 RU/mg protein and the “glucose concentration compared to the control group” value [5] was “drop”. The “increase of insulin producing pancreatic islets area” value [5] was “more than 100%”, the “decrease in the activity of active MMP-2 compared with the control” value (MMP-2; 16.69 μg/ml) was 66.8% and the “decrease in the activity of latent pro-MMP-2 compared with the control” value (MMP-2; 16.69 μg/ml) was 76.5%. For the same molecule, the “suppression of the activity of MMP-2 compared with the control” value (MMP-2; 25.03 μg/ml) was 76%, the “decrease of glucose concentration” value (type 1 diabetes) was 26% and the “decrease of glycosylated hemoglobin” value (type 1 diabetes) was 30%. The “increase of serum insulin content” value (type 1 diabetes) was 13%, the MBC (S. aureus ATCC 25923) was 0.023* mcg ^64Zne/ml and the dopaminergic neuron loss [6, 11] was “Prevention”. For the same molecule, the harmful side effects [6, 11] was “absence”, the “local and systemic inflammation” value [6, 11] was “Inhibition” and the “metabolic activity of microglia” value [6, 11] was “increase”. The “number of dopaminergic neurons in the substantia nigra” value ([6]; LPS-induced Parkinson's disease, rats) was “virtually full restoration”, the systemic inflammatory responses ([6]; therapeutic administration, LPS-induced parkinsonism) was “reduces” and the “bacteriostatic activity (in words)” value (P. aeruginosa ATCC 27853 [7]) was “best results”. For the same molecule, the “suppressed proliferation of MM-4 cells compared with the control” value ([8]; 16.69 μg/ml) was 22.2%, the “reduction in the number of live melanoma cells compared with the control” value ([8]; 25.03 μg/ml) was 49.2% and the IC20 ([8]; MM-4 cells) was 16.69 µg/mL. The IC50 ([8]; MM-4 cells) was 25.03 µg/mL, the “decrease in the expression of Bcl-2 vs. control” value (MM-4 cells; 16.69 μg/ml) was 69.5% and the “expression of pro-apoptotic proteins Bax and p53” value (MM-4 cells; 16.69 μg/ml) was “did not have any effect”. For the same molecule, the “expression level of p53 (Y-5 clone)” value (MM-4 cells; 25.03 μg/ml) was “does not influence”, the “increased expression level of Bax compared with the control” value (MM-4 cells; 25.03 μg/ml) was 8.9 times and the “increased expression level of p53 (DO-7 clone) compared with the control” value (MM-4 cells; 25.03 μg/ml) was 9.5 times. The “expression of anti-apoptotic protein Bcl-2” value (MM-4 cells; concentration not given) was “does not have any effect”, the MBC (E. coli ATCC 25922) was 0.73* mcg ^64Zne/ml and the “fatty degeneration (exocrine part of the pancreas)” value ([9]; DIO group) was “Disappearance”. For the same molecule, the “divalent metal ions (zinc, copper, manganese) in muscles, kidneys and liver” value ([9]; animal models of obesity) was “restoration of their normal physiological levels”, the “activity of antioxidant enzymes (superoxide dismutase and catalase)” value ([9]; animals on a high fat diet) was “increased activity” and the “levels of lipid peroxidation products and protein oxidative modification” value ([9]; animals on a high fat diet) was “decrease”. The “central and peripheral serotonin levels compared to untreated animal models of obesity” value ([9]; animals on a high-fat diet) was “restoration”, the “decrease of the area of hepatocytes compared to the group with obesity” value ([9]; animals on a high-fat diet) was 41% and the “increase of the cross-sectional surface area of the islets of Langerhans compared with the obesity group” value ([9]; animals on a high-fat diet) was 43%. The lipid metabolism ([9]; animals on a high-fat diet) was “Improvement”, the “serotonin levels in the brain” value ([9]; animals on a high-fat diet) was “An increase” and the “weight and the amount of food consumed compared to the untreated animals” value ([9]; animals on a high-fat diet) was “Reduction”.
